Results as given in patent US12441726B2, “Compounds and uses thereof” (Foghorn Therapeutics Inc., priority 2020, dated 2025).

Experiments:
BRG-1 = BRG-1 (Homo sapiens, UniProt P51532); experiment: ATPase catalytic activity assay (ADP-Glo), BRG-1; conditions: for Emax: 1 h, read-out: BRG1 Max % Inhibition, ADP-Glo, 30 nM BRG-1, 400 μM ATP
BRM = BRM (Homo sapiens, UniProt P51531); experiment: ATPase catalytic activity assay (ADP-Glo), BRM; conditions: 30 nM BRM, 400 μM ATP; for IC50: BRM ATPase: IC50 (uM)
Sequence of BRM (P51531 whole entry): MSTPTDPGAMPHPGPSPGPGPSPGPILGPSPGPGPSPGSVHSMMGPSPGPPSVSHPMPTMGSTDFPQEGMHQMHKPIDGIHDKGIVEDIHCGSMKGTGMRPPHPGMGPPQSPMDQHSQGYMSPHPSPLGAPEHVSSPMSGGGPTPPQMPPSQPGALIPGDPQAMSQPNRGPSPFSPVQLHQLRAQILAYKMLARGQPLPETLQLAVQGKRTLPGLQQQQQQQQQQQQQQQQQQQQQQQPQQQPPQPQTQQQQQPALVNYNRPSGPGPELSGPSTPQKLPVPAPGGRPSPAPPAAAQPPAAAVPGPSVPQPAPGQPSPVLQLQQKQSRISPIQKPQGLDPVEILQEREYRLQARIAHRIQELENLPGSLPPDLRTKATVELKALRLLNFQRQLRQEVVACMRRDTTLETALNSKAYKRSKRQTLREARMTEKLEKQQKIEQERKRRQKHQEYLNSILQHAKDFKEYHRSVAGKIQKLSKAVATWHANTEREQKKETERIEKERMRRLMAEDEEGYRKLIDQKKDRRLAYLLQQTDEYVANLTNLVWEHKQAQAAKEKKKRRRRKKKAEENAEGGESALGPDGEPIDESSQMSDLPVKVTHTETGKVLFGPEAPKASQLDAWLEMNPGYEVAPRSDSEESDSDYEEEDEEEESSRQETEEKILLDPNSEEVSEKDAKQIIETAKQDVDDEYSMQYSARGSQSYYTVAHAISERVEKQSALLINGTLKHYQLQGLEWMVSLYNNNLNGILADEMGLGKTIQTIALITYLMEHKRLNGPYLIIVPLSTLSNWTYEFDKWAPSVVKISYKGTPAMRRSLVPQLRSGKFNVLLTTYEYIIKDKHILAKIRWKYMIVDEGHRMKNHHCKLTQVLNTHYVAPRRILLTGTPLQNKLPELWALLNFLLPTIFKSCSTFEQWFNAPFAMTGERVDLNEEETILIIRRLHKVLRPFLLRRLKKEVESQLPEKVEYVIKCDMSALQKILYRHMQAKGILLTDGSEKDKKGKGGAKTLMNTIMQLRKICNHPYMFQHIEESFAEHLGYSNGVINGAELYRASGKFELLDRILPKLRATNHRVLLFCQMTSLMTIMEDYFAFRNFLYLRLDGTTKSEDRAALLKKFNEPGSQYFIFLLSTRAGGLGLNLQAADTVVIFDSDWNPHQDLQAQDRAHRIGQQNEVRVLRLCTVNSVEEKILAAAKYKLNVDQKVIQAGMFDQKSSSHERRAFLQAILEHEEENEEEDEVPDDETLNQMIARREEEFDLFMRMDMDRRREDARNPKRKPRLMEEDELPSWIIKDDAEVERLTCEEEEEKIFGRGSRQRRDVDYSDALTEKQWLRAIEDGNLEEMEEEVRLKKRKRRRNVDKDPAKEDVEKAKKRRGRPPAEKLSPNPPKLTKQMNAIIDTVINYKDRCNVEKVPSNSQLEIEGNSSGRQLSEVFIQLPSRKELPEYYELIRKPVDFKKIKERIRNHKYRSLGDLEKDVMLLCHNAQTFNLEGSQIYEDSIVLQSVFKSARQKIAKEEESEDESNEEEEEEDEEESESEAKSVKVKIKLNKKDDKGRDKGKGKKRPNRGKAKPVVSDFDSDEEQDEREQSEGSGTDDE

Sequence of BRG-1 (P51532 whole entry): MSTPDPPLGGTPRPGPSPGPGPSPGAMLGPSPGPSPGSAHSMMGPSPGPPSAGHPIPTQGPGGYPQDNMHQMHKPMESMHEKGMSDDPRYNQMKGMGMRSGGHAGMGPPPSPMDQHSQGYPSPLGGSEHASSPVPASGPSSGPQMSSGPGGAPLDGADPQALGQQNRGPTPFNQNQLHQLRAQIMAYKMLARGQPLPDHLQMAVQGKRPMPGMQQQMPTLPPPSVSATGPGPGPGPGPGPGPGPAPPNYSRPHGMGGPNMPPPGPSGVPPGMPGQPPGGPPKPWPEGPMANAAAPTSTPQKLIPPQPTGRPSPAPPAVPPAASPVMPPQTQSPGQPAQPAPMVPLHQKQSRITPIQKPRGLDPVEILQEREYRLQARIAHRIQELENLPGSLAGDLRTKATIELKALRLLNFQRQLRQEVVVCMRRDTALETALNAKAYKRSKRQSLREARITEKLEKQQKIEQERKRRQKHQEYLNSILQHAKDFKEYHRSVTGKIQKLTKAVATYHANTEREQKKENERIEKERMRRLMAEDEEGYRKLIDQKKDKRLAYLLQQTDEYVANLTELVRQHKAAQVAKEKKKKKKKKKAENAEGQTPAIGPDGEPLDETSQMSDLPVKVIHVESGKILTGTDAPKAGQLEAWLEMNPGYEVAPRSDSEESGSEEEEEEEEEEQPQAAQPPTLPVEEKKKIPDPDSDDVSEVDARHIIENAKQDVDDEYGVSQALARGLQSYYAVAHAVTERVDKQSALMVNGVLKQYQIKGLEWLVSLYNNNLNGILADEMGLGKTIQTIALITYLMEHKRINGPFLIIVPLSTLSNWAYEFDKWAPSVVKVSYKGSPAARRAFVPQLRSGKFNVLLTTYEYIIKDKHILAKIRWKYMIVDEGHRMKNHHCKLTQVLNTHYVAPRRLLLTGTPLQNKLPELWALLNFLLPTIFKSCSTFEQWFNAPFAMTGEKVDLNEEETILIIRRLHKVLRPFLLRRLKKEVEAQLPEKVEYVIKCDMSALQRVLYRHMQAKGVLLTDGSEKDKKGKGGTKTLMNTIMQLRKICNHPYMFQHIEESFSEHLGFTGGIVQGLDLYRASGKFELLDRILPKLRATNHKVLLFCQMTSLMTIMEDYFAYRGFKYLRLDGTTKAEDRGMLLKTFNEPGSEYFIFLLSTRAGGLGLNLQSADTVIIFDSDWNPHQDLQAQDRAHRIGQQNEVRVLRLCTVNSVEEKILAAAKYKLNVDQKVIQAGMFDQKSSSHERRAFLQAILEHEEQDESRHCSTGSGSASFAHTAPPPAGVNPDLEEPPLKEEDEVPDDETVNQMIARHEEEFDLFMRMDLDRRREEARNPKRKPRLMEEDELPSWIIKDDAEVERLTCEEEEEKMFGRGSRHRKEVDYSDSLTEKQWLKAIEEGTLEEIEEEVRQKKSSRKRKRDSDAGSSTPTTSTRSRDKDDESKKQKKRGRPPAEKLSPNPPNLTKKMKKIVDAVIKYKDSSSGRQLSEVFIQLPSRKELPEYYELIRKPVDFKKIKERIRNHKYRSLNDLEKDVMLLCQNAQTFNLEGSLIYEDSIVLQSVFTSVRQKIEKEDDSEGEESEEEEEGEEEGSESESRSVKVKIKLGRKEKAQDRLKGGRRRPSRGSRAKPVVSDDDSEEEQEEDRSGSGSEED

Structure (SMILES) | IC50 (BRG-1) | Emax (BRG-1) | BRM Max % Inhibition (BRM) | IC50 (BRM) | BRG1 Max % Inhibition (BRG-1; ADP-Glo, 30 nM BRG-1, 400 μM ATP)
C[C@@]1(C#N)COCc2ccc(C(=O)NCc3cc4c(cn3)CCN(c3cccc(C(F)F)n3)C4)cc21 [Compound 304] | > 1000 nM | 38% | 86% | 0.1 to 0.5 µM | –
COc1ccc([C@H]2C[C@@H](c3ccnc(CNC(=O)c4ccc5c(c4)[C@](C)(C#N)COC5)c3)C2)cc1 [Compound 70] | 500 to 1000 nM | 55% | 94% | 0.1 to 0.5 µM | –
C[C@@]1(C#N)COCc2ccc(C(=O)NCc3cc(/C=C(\F)c4ccccc4)ccn3)cc21 [Compound 29] | > 1000 nM | 69% | 98% | 0.1 to 0.5 µM | –
C[C@@]1(F)COCc2ccc(C(=O)NCc3cc4nc(-c5ccccc5)ccc4cn3)cc21 [Compound 86] | > 1000 nM | 62% | 96% | 0.1 to 0.5 µM | –
CNC(=O)c1cccc(-c2ccc3cnc(CNC(=O)c4ccc5c(c4)[C@](C)(C#N)COC5)cc3n2)c1 [Compound 483] | 500 to 1000 nM | 72% | 93% | 0.1 to 0.5 µM | –
C[C@@]1(C#N)COCc2ccc(C(=O)NCc3cc4cc(-c5ccccc5)cnc4cn3)cc21 [Compound 511] | 500 to 1000 nM | 79% | 96% | < 0.1 µM | –
C[C@@]1(C#N)COCc2ccc(C(=O)NCc3cc4nc(-c5cncc(N6CCC6)c5)ccc4cn3)cc21 [Compound 441] | 500 to 1000 nM | 80% | 97% | 0.1 to 0.5 µM | –
CC(C)(O)C#Cc1cccc(-c2ccc3cnc(CNC(=O)c4ccc5c(c4)[C@](C)(C#N)COC5)cc3n2)n1 [Compound 170] | 500 to 1000 nM | 80% | 96% | 0.1 to 0.5 µM | –
C[C@@]1(C#N)COCc2ccc(C(=O)NCc3cc(N4CC5(CN(c6ccccc6)C5)C4)ccn3)cc21 [Compound 10] | > 1000 nM | 30% | 71% | > 1 µM | –
COc1cc(C2CCC2)ccc1-c1ccc2cnc(CNC(=O)c3ccc4c(c3)[C@](C)(C#N)COC4)cc2n1 [Compound 127] | 500 to 1000 nM | 74% | 96% | < 0.1 µM | –
COC[C@H](NC(=O)c1ccc2c(c1)[C@](C)(C#N)COC2)c1cc(C#Cc2ccccc2)ccn1 [Compound 43] | > 1000 nM | 34% | 68% | > 1 µM | –
COC(=O)N1CCC(C#Cc2ccnc(CNC(=O)c3ccc4c(c3)[C@](C)(C#N)COC4)c2)C1 (stereo partly drawn) [Compound 22] | > 1000 nM | 31% | 70% | > 1 µM | –
COc1nn(C(F)F)cc1-c1ccc2cnc(CNC(=O)c3cnc4c(c3)[C@](C)(F)COC4)cc2n1 [Compound 192] | 500 to 1000 nM | 60% | 94% | 0.1 to 0.5 µM | –
COC(=O)N1CCC2CC2(c2ccc3cnc(CNC(=O)c4ccc5c(c4)[C@](C)(C#N)COC5)cc3n2)C1 (stereo partly drawn) [Compound 523] | 500 to 1000 nM | 58% | 90% | 0.1 to 0.5 µM | –
C[C@@H]1CN(c2cccc(-c3ccc4[nH]c(CNC(=O)c5ccc6c(c5)[C@](C)(CO)CC6)nc4c3)c2)C[C@H](C)O1 [Compound 526] | 500 to 1000 nM | 61.2% | 90.7% | 0.1 to 0.5 µM | –
C[C@@]1(C#N)COCc2ccc(C(=O)NCc3cc4c(nn3)CCN(c3cncc(N5CCC5)n3)C4)cc21 [Compound 247] | > 1000 nM | 65% | 93% | 0.1 to 0.5 µM | –
Cn1ccc2c(c1=O)CCN(c1ccnc(CNC(=O)c3ccc4c(c3)[C@](C)(C#N)COC4)c1)C2 [Compound 73] | > 1000 nM | 44% | 84% | 0.1 to 0.5 µM | –
C[C@@]1(C#N)COCc2ccc(C(=O)NCc3cc4nc(-c5ccc(N6CCC6)cc5)ccc4cn3)cc21 [Compound 125] | 500 to 1000 nM | 86% | 98% | 0.1 to 0.5 µM | –
[2H]C1([2H])OC([2H])([2H])[C@@](C)(F)c2cc(C(=O)NCc3cc4nc(-c5cncc(C6CC6)n5)ccc4cn3)cnc21 [Compound 176] | 500 to 1000 nM | 83% | 98% | < 0.1 µM | –
C[C@@]1(C#N)COCc2ccc(C(=O)NCc3cc4nc(-c5ccccc5)ccc4cn3)cc21 [Compound 97] | > 1000 nM | – | 93% | 0.1 to 0.5 µM | 47%
C[C@@]1(CO)COCc2ccc(C(=O)NCc3cc4nc(-c5ccccc5)sc4cn3)cc21 [Compound 115] | > 1000 nM | 19% | 84% | > 1 µM | –
COCCN1CCC(c2cccc(-c3ccc4cnc(CNC(=O)c5ccc6c(c5)[C@](C)(C#N)COC6)cc4n3)n2)CC1 [Compound 128] | > 1000 nM | 39% | 82% | 0.1 to 0.5 µM | –

Second part, the compound after the results:

IC50 (BRG-1) | Emax (BRG-1) | BRM Max % Inhibition (BRM) | IC50 (BRM) | BRG1 Max % Inhibition (BRG-1; ADP-Glo, 30 nM BRG-1, 400 μM ATP) | Structure (SMILES)
100 to 500 nM | 92% | 98% | < 0.1 µM | – | Cn1ccc2c(-c3ccc4cnc(CNC(=O)c5ccc6c(c5)[C@](C)(C#N)COC6)cc4n3)cc(F)cc21 [Compound 171]
100 to 500 nM | 82% | 96% | 0.1 to 0.5 µM | – | Cn1ccc2nc(-c3ccc4cnc(CNC(=O)c5ccc6c(c5)[C@](C)(C#N)COC6)cc4n3)sc2c1=O [Compound 443]
500 to 1000 nM | 66% | 94% | 0.1 to 0.5 µM | – | Cc1cn(C)c2cccc(-c3ccc4cnc(CNC(=O)c5ccc6c(c5)[C@](C)(C#N)COC6)cc4n3)c12 [Compound 177]
< 100 nM | 96% | 99% | < 0.1 µM | – | C[C@@]1(C#N)COCc2ccc(C(=O)NCc3cc4nc(-c5cccc(N6CCC6=O)c5)ccc4cn3)cc21 [Compound 393]
100 to 500 nM | 89% | 99% | < 0.1 µM | – | O=C(NCc1cc2nc(-c3cncc(N4CCC4)n3)ccc2cn1)c1cc(F)c2c(c1)[C@@](F)(C(F)F)COC2 [Compound 352]
500 to 1000 nM | 63% | 96% | 0.1 to 0.5 µM | – | C[C@@]1(C#N)COCc2ccc(C(=O)NCc3cc4nc(-n5cccc(N6CCC6)c5=O)ccc4cn3)cc21 [Compound 283]
100 to 500 nM | 94% | 99% | < 0.1 µM | – | C[C@@]1(F)COCc2ccc(C(=O)NCc3cc4nc(-c5ccnc(N6CCN(C7COC7)CC6)n5)ccc4cn3)cc21 [Compound 292]
100 to 500 nM | 72% | 99% | < 0.1 µM | – | C[C@@]1(C#N)COCc2ccc(C(=O)NCc3cc4nc(-c5ccnc(N6CCC6)c5F)sc4cn3)cc21 [Compound 235]
< 100 nM | 96% | 100% | < 0.1 µM | – | CN(C)c1cccc(-c2ccc3nnc(CNC(=O)c4ccc5c(c4)[C@](C)(F)COC5)cc3n2)n1 [Compound 238]
100 to 500 nM | 94% | 99% | < 0.1 µM | – | CN(C)c1cccc(-c2ccc3cnc(CNC(=O)c4cnc5c(c4)[C@@](F)(C(F)F)COC5)cc3n2)n1 [Compound 227]
100 to 500 nM | 95% | 102% | < 0.1 µM | – | COc1cc(C)ccc1-c1ccc2cnc(CNC(=O)c3ccc4c(c3)[C@](C)(C#N)COC4)cc2n1 [Compound 144]
< 100 nM | 92% | 100% | < 0.1 µM | – | Cn1ccc2c(F)cc(-c3ccc4cnc(CNC(=O)c5ccc6c(c5)[C@](C)(C#N)COC6)cc4n3)cc2c1=O [Compound 434]
< 100 nM | 99% | 102% | < 0.1 µM | – | C[C@@]1(C#N)COCc2ccc(C(=O)NCc3cc4cc(-c5cccc(C6(O)CC6)n5)ccc4cn3)cc21 [Compound 262]
< 100 nM | 98% | 102% | < 0.1 µM | – | COCCn1c(C)cc2c(-c3ccc4cnc(CNC(=O)c5ccc6c(c5)[C@](C)(C#N)COC6)cc4n3)cccc21 [Compound 133]
100 to 500 nM | 91% | 99% | < 0.1 µM | – | C[C@@]1(C#N)COCc2ccc(C(=O)NCc3cc4nc(-c5ccnc(N6C[C@@H]7C[C@H]6CO7)n5)ccc4cn3)cc21 [Compound 340]
100 to 500 nM | 96% | 97% | < 0.1 µM | – | C[C@@]1(C#N)COCc2ccc(C(=O)NCc3cc4nc(-c5ccnc(N6CCC6)n5)ccc4cn3)cc21 [Compound 506]
100 to 500 nM | 95% | 99% | < 0.1 µM | – | C[C@@]1(C#N)COCc2ccc(C(=O)NCc3cc4nc(-c5ccnc(N6CCOCC6)n5)ccc4cn3)cc21 [Compound 416]
100 to 500 nM | 82% | 97% | < 0.1 µM | – | C[C@@]1(C#N)COCc2ccc(C(=O)NCc3cc4nc(-c5ccn6ncc(C(F)F)c6n5)ccc4cn3)cc21 [Compound 309]
100 to 500 nM | 96% | 100% | < 0.1 µM | – | COCc1cc2c(-c3ccc4cnc(CNC(=O)c5ccc6c(c5)[C@](C)(C#N)COC6)cc4n3)cccc2n1C [Compound 141]
100 to 500 nM | 90% | 98% | < 0.1 µM | – | C[C@@H]1CN(c2cccc([C@H]3C[C@H](c4ccnc(CNC(=O)c5ccc6c(c5)[C@](C)(C#N)COC6)c4)C3)n2)C[C@H](C)O1 [Compound 81]
